pIC50: −log10 of the molar value.

Our source for the IC50 values is patent publication US10640495B2, “Heterocycle derivatives having TrkA inhibitory activity” (Shionogi & Co., Ltd., priority 2015, dated 2020).

Chain of human TrkA (P04629 440-796): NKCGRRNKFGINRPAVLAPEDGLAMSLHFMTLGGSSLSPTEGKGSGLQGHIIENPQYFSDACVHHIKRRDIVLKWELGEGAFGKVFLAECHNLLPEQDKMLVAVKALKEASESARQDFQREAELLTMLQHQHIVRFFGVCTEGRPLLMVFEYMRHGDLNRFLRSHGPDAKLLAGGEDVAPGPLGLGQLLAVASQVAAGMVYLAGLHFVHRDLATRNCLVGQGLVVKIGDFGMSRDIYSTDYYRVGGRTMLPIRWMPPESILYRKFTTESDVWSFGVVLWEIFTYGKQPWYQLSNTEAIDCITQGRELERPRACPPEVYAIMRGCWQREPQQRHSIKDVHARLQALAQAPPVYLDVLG

For one experiment, the target named is human TrkA (Homo sapiens (Human), UniProt P04629). The experiment in a line: Human TrkA inhibition assay (Test Example 2). It counts as biochemical. Conditions: Table 153, human TrkA inhibition; read-out: IC50. A digest of the protocol:
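Mobility-shift readout of phosphorylated versus unphosphorylated fluorescent peptide gave conversion ratio, normalized to DMSO and no-enzyme wells; IC50 by logistic fit of 10- or 15-point 3-fold dilutions. Conditions: 1 nmol/L enzyme, 15 min compound preincubation, then 500 μmol/L ATP plus 1.5 μmol/L peptide, 120 min, 37 °C.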
Regarding `COCCN1C[C@@H](NC(=O)Nc2c(C)c(-c3cnc4c(c3)nnn4C)nn2-c2ccccc2)[C@H](c2ccc(F)c(F)c2)O1` (racemic) [Compound I-126], the negative-log IC50 (pIC50) is > 7.00.

Turning to `COCCN1C[C@@H](NC(=O)Nc2c(C)c(-c3cnn(C)c3)nn2-c2ccccc2)[C@H](c2ccc(F)cc2)O1` (racemic) [Compound I-116], the pIC50 is > 7.00.

`COCCN1C[C@@H](NC(=O)Nc2c(C)c(-c3cnc(OC)c(C(N)=O)c3)nn2-c2ccccc2)[C@H](c2cnc(OC)c(F)c2)O1` (racemic) [Compound I-102]: the pIC50 was > 7.00.

Take `COCCN1C[C@@H](NC(=O)Nc2c(C)c(-c3cnc(N=S(C)(C)=O)c(C)c3)nn2-c2ccccc2)[C@H](c2ccc(F)c(F)c2)O1` (racemic) [Compound I-92]: the pIC50 is > 7.00.

With `COCCN1C[C@@H](NC(=O)Nc2c(C)c(-c3cc(COC(C)=O)c(=O)n(C)c3)nn2-c2ccccc2)[C@H](c2ccc(F)c(F)c2)O1` (racemic) [Compound I-124], the pIC50 is > 7.00.

As for `COCC[C@@H]1C[C@@H](NC(=O)Nc2c(C)c(C3=CCN(C(=O)OC(C)(C)C)CC3)nn2-c2ccccc2)[C@H](c2ccc(F)c(F)c2)O1` (racemic) [Compound I-54], the negative-log IC50 (pIC50) is > 7.00.

On to `COCCN1C[C@@H](NC(=O)Nc2c(C)c(-c3cnc(C(=O)NCC(F)(F)F)c(C)c3)nn2-c2ccccc2)[C@H](c2ccnc(F)c2)O1` (racemic) [Compound I-168], for which the pIC50 was > 7.00.

For the compound `COCC[C@H]1C[C@H](NC(=O)Nc2c(C)c(C3=CCN(C(=O)CO)CC3)nn2-c2ccccc2)[C@@H](c2ccc(F)c(F)c2)O1` [Compound I-58], the pIC50 was 6.00 to 7.00.

For the compound `COCCN1C[C@@H](NC(=O)Nc2c(C)c(-c3cnc(OC)c(C(=O)NC4CCS(=O)(=O)CC4)c3)nn2-c2ccccc2)[C@H](c2cnc(F)c(F)c2)O1` (racemic) [Compound I-103], the negative logarithm of the IC50 (pIC50) was > 7.00.

Staying with this experiment, now noted: Table 154, human TrkA inhibition; read-out: IC50.
Regarding `COCC[C@@H]1C[C@@H](NC(=O)Nc2c(C)c(-c3cnc4c(c3)ncn4C)nn2-c2ccccc2)[C@H](c2ccnc(F)c2)O1` [Compound I-276], the negative-log IC50 (pIC50) is > 7.00.

For `Cc1c(-c2cnc3c(cnn3C)c2)nn(-c2ccccc2)c1NC(=O)N[C@@H]1CN(CC2COC2)O[C@H]1c1ccc(F)c(F)c1` (racemic) [Compound I-202], the negative-log IC50 (pIC50) was 6.00 to 7.00.

`COCCN1C[C@H](NC(=O)Nc2c(C)c(-c3cnc(OC)nc3)nn2-c2ccccc2)[C@@H](c2cnc(F)c(F)c2)O1` [Compound I-263]: the pIC50 was 6.00 to 7.00.

With `CNC(=O)c1cc(-c2nn(-c3ccccc3)c(NC(=O)N[C@@H]3CN(CCOC)O[C@H]3c3ccnc(F)c3)c2C)cnc1OC` [Compound I-191], the negative-log IC50 (pIC50) is > 7.00.

Consider `CCN1C[C@@H](NC(=O)Nc2c(C)c(-c3cnc4c(cnn4C)c3)nn2-c2ccccc2)[C@H](c2ccc(F)c(F)c2)O1` (racemic) [Compound I-200], for which the pIC50 was > 7.00.

On to `COCC[C@@H]1C[C@@H](NC(=O)Nc2c(C)c(-c3cnn(C)c3)nn2-c2ccccc2)[C@H](c2ccnc(F)c2)O1` [Compound I-235], for which the negative-log IC50 (pIC50) was > 7.00.

Take `COCCN1C[C@@H](NC(=O)Nc2c(C)c(-c3cnc(C(N)=O)c(F)c3)nn2-c2ccccc2)[C@H](c2cnc(F)c(F)c2)O1` (racemic) [Compound I-311]: the pIC50 is > 7.00.

Turning to `Cc1c(-c2cnn(C)c2)nn(-c2ccccc2)c1NC(=O)N[C@@H]1CN(CC(F)(F)F)O[C@H]1c1ccc(F)c(F)c1` (racemic) [Compound I-304], the negative logarithm of the IC50 (pIC50) is 6.00 to 7.00.

`Cc1c(-c2cnc3c(cnn3C)c2)nn(-c2ccccc2)c1NC(=O)N[C@@H]1CN(CC(F)(F)F)O[C@H]1c1ccc(F)c(F)c1` (racemic) [Compound I-305]: the pIC50 is > 7.00.

The same experiment, now with this note: Table 155, human TrkA inhibition; read-out: IC50.
Turning to `COCCN1C[C@@H](NC(=O)Nc2c(C)c(-c3cnc(N4CCN(CC#N)CC4)nc3)nn2-c2ccccc2)[C@H](c2cc(F)nc(F)c2)O1` (racemic) [Compound I-419], the pIC50 is > 7.00.

On to `COCCN1C[C@@H](NC(=O)Nc2c(C)c(-c3cnc4c(c3)c(N3CCCC3)nn4C)nn2-c2ccccc2)[C@H](c2ccnc(F)c2)O1` (racemic) [Compound I-491], for which the pIC50 was > 7.00.

In the case of `COCCN1C[C@@H](NC(=O)Nc2c(C)c(-c3cnc(N4CC5(COC5)C4)nc3)nn2-c2ccccc2)[C@H](c2ccnc(F)c2)O1` (racemic) [Compound I-373], the negative-log IC50 (pIC50) is > 7.00.

As for `COCCN1C[C@@H](NC(=O)Nc2c(C)c(-c3cnc4c(c3)c(CO[Si](C)(C)C(C)(C)C)nn4C)nn2-c2ccccc2)[C@H](c2ccnc(F)c2)O1` (racemic) [Compound I-424], the pIC50 is > 7.00.

For the compound `COCCN1C[C@@H](NC(=O)Nc2c(C)c(Oc3ccnc(C(F)(F)F)c3)nn2-c2ccccc2)[C@H](c2ccnc(F)c2)O1` (racemic) [Compound I-441], the pIC50 is 6.00 to 7.00.

For `COCCN1C[C@@H](NC(=O)Nc2c(C)c(OCc3cc(OC)ccn3)nn2-c2ccccc2)[C@H](c2ccnc(F)c2)O1` (racemic) [Compound I-501], the negative logarithm of the IC50 (pIC50) is > 7.00.

`COc1ncc(-c2nn(-c3ccccc3)c(NC(=O)N[C@@H]3CN(C)O[C@H]3c3ccc(F)c(F)c3)c2C)cn1` (racemic) [Compound I-468]: the pIC50 is > 7.00.

`COCCN1C[C@@H](NC(=O)Nc2c(C)c(OCC3CNCCO3)nn2-c2ccccc2)[C@H](c2ccnc(F)c2)O1` (stereo partly drawn) [Compound I-500]: the negative logarithm of the IC50 (pIC50) was > 7.00.

Regarding `COCCN1C[C@@H](NC(=O)Nc2c(C)c(-c3cnc4c(c3)nc(C(=O)NC3CCN(C)CC3)n4C)nn2-c2ccccc2)[C@H](c2ccnc(F)c2)O1` (racemic) [Compound I-404], the negative-log IC50 (pIC50) is > 7.00.

Regarding `COCCN1C[C@@H](NC(=O)Nc2c(C)c(-c3ccc(C)nc3F)nn2-c2ccccc2)[C@H](c2ccnc(F)c2)O1` (racemic) [Compound I-350], the pIC50 was > 7.00.

On to `COCCN1C[C@@H](NC(=O)Nc2c(C)c(-c3cnc4nn(C(F)F)cc4c3)nn2-c2ccccc2)[C@H](c2ccnc(F)c2)O1` (racemic) [Compound I-331], for which the pIC50 was > 7.00.

As to `COCCN1C[C@@H](NC(=O)Nc2c(C)c(-c3cnc(N4CCNOCC4)nc3)nn2-c2ccccc2)[C@H](c2ccnc(F)c2)O1` (racemic) [Compound I-507], the negative-log IC50 (pIC50) was > 7.00.

Consider `COCCN1C[C@@H](NC(=O)Nc2c(C)c(-c3cnc4c(c3)N3C(=O)OCC3CO4)nn2-c2ccccc2)[C@H](c2ccnc(F)c2)O1` (mixture of isomers) [Compound I-326], for which the negative logarithm of the IC50 (pIC50) was > 7.00.

Consider `COCCN1C[C@@H](NC(=O)Nc2c(C)c(-c3cnn(C)c3)nn2CCN(C)C)[C@H](c2ccc(F)c(F)c2)O1` [Compound I-494], for which the pIC50 was < 6.00.

For the compound `COCCN1C[C@@H](NC(=O)Nc2c(C)c(-c3ccc(=O)n(C)c3)nn2-c2ccccc2)[C@H](c2ccc(F)c(F)c2)O1` [Compound I-498], the negative logarithm of the IC50 (pIC50) is > 7.00.

With `COCCN1C[C@@H](NC(=O)Nc2c(C)c(-c3cc(C(=O)NC(C)(C)C)c(=O)n(C)c3)nn2-c2ccccc2)[C@H](c2ccnc(F)c2)O1` (racemic) [Compound I-389], the pIC50 is > 7.00.

With `COCCN1C[C@@H](NC(=O)Nc2c(C)c(-c3cnc(N4CC5(CCOC5)C4)nc3)nn2-c2ccccc2)[C@H](c2ccnc(F)c2)O1` (racemic) [Compound I-483], the pIC50 is > 7.00.

Turning to `COCCN1C[C@@H](NC(=O)Nc2c(C)c(-c3ccc(N=S(C)(C)=O)nc3)nn2-c2ccccc2)[C@H](c2ccc(F)cc2)O1` [Compound I-334], the negative-log IC50 (pIC50) was > 7.00.

Regarding `COCCN1C[C@@H](NC(=O)Nc2c(C)c(-c3cnc4c(c3)CN(C)C4=O)nn2-c2ccccc2)[C@H](c2ccnc(F)c2)O1` (racemic) [Compound I-343], the negative-log IC50 (pIC50) was > 7.00.

Staying with this experiment, now noted: Table 157, human TrkA inhibition; read-out: IC50.
Take `Cc1c(-c2cnc3c(cnn3C)c2)nn(-c2ccccc2)c1NC(=O)N[C@@H]1CN(CCC(F)(F)F)O[C@H]1c1ccc(F)c(F)c1` (racemic) [Compound I-622]: the pIC50 is < 6.00.

In the case of `COCCN1C[C@@H](NC(=O)Nc2c(C)c(-c3cnc(OC)c(CO)c3)nn2-c2ccccc2)[C@H](c2ccc(F)c(F)c2)O1` [Compound I-637], the negative logarithm of the IC50 (pIC50) was > 7.00.

In the case of `CCN1C[C@@H](NC(=O)Nc2c(C)c(OCCCC(=O)NCC(C)(C)O)nn2-c2ccccc2)[C@H](c2ccc(F)c(F)c2)O1` (racemic) [Compound I-669], the negative-log IC50 (pIC50) is > 7.00.

On to `COCCN1C[C@@H](NC(=O)Nc2c(C)c(-c3cnc(N(C)CCOC)nc3)nn2-c2ccccc2)[C@H](c2ccnc(F)c2)O1` (racemic) [Compound I-588], for which the pIC50 is > 7.00.

For the compound `COCCN1C[C@@H](NC(=O)Nc2c(C)c(-c3cnc(N4CCN(C)CC4)nc3)nn2-c2ccccc2)[C@H](c2ccc(F)c(F)c2)O1` [Compound I-598], the negative logarithm of the IC50 (pIC50) is > 7.00.

On to `CCN1C[C@@H](NC(=O)Nc2c(C)c(OCC(=O)NC)nn2-c2ccccc2)[C@H](c2ccc(F)c(F)c2)O1` (racemic) [Compound I-646], for which the negative-log IC50 (pIC50) was > 7.00.

The same experiment, now with this note: human TrkA 1 nmol/L, ATP 500 μmol/L, 120 min at 37° C.; read-out: IC50 values (TrkA phosphorylation inhibition).
As for `COCCN1C[C@@H](NC(=O)Nc2c(C)c(-c3cnc(OCC4CC4)nc3)nn2-c2ccccc2)[C@H](c2ccnc(F)c2)O1` (racemic) [Compound I-431], the negative-log IC50 (pIC50) was 8.51.

As for `COCC[C@@H]1C[C@@H](NC(=O)Nc2c(C)c(-c3cnc(C)nc3)nn2-c2ccccc2)[C@H](c2ccc(F)c(F)c2)O1` (racemic) [Compound I-28], the pIC50 is 8.60.

For `COCCN1C[C@@H](NC(=O)Nc2c(C)c(-c3cnc(OC)nc3)nn2-c2ccccc2)[C@H](c2cnc(F)c(F)c2)O1` [Compound I-211], the negative logarithm of the IC50 (pIC50) was 8.82.

As for `COCCN1C[C@@H](NC(=O)Nc2c(C)c(C3=CCN(C(C)=O)CC3)nn2-c2ccccc2)[C@H](c2ccc(F)c(F)c2)O1` [Compound I-39], the pIC50 was 9.32.

On to `COCCN1C[C@@H](NC(=O)Nc2c(C)c(-c3cnc(COC)nc3)nn2-c2ccccc2)[C@H](c2ccc(F)c(F)c2)O1` [Compound I-508], for which the negative-log IC50 (pIC50) was 8.96.
